From the Deep4Chem optical property database come the findings set out here.

A short description of this data set: solvent given as SMILES.

In turn, `Cc1cc(-c2nc(-c3ccccc3)nc(-c3ccccc3)n2)ccc1-n1c2ccccc2c2cc3c(cc21)C1c2ccccc2C3c2ccccc21` gave an absorption maximum (in Cc1ccccc1) of 364 nm.
As for `O=C1/C(=C/C=C/c2cc3c4c(c2)CCCN4CCC3)CC/C1=C\C=C\c1cc2c3c(c1)CCCN3CCC2`, the absorption maximum is reported as 510 nm (in CC#N); 515 nm (in CC(C)=O); 535 nm (in CC(C)O); 457 nm (in CCCCCC); 543 nm (in CCCCO); 541 nm (in CCCO). For the same compound, the absorption maximum is, setting by setting: (in CCO) 538 nm; (in CCOC(C)=O) 495 nm; (in CCOCC) 494 nm; (in CN(C)C=O) 532 nm; (in CO) 523 nm; (in CS(C)=O) 539 nm. The absorption maximum is, setting by setting: (in Cc1ccccc1) 505 nm; (in ClCCl) 529 nm; (in OCC(F)(F)F) 584 nm; (in S=C=S) 530 nm; (in c1ccccc1) 510 nm; (in c1ccncc1) 534 nm.
In turn, `CCCC1=Cc2nc1ccc1[nH]c(cc1CCC)c1nc(c(NC(C)=O)cc3[nH]c2cc3CCC)C(CCC)=C1` displayed an absorption maximum (in Cc1ccccc1) of 639 nm.
For `CCCCCCc1ccsc1-c1cc2c3cc(-c4sccc4CCCCCC)c4nc(C(F)(F)C(F)(F)C(F)(F)F)nc5c(-c6sccc6CCCCCC)cc(c6cc(-c7sccc7CCCCCC)c7nc(C(F)(F)C(F)(F)C(F)(F)F)nc1c7c26)c3c45`, for the setting “in C1CCOC1”, the absorption maximum amounted to 521 nm.
On to `CC(C)(C)c1ccc(N(c2ccc(C(C)(C)C)cc2)c2ccc3c(N(c4ccc(C(C)(C)C)cc4)c4ccc(C(C)(C)C)cc4)cc4c5cc(N(c6ccc(C(C)(C)C)cc6)c6ccc(C(C)(C)C)cc6)ccc5c(N(c5ccc(C(C)(C)C)cc5)c5ccc(C(C)(C)C)cc5)cc4c3c2)cc1`, for which the absorption maximum (in ClCCl) is listed as 433 nm.
The compound `O=S(=O)([O-])c1ccc2c(O)cc(S(=O)(=O)[O-])cc2c1` displayed an absorption maximum (in O) of 295 nm.
Turning to `CC(=O)OCCN1C(=O)c2cccc3c(Oc4ccc(C#N)cc4)ccc(c23)C1=O`, the absorption maximum (in ClC(Cl)Cl) was found to be 351 nm.
For the compound `CCCCCCCCCCCCOc1cc2cc(N(C)C)ccc2cc1C#N`, the absorption maximum (in C1CCOC1) is given as 361 nm; the absorption maximum (in CC#N) was 368 nm; the absorption maximum (in CCCCCC) turned out to be 336 nm; the absorption maximum (in CCO) was 368 nm; the absorption maximum (in CCOC(C)=O) amounted to 361 nm; the absorption maximum (in CS(C)=O) is reported as 369 nm. This compound gave an absorption maximum (in ClCCl) of 368 nm and an absorption maximum (in O) of 368 nm.
Consider `CC(=O)c1c(N[C@H](C(=O)O)C(C)C)c2ccc(N(C)C)cc2oc1=O`, for which the absorption maximum (in ClCCl) was determined as 371 nm.
Turning to `F[Si-](F)(c1ccccc1)(c1c2ccccc2cc2ccccc12)c1c2ccccc2cc2ccccc12`, the absorption maximum (in C1CCOC1) stood at 391 nm.
Take `CCCCCCCCOc1ccc(C2=C(c3ccc(OCCCCCCCC)cc3)C(C)(C)c3ccccc32)cc1`: the absorption maximum (in C1CCCCC1) is given as 281 nm.
Regarding `COc1cc(OC)c2cc(C#N)c(=N)oc2c1`, the absorption maximum (in ClCCl) worked out at 372 nm.
As for `O=c1c2cc(F)c(O)cc2sc2cc(O)c(F)cc12`, the absorption maximum (in CCO) came out at 377 nm.
The compound `Cc1ccc(C2=C3C=CC([Te]c4ccccc4)=[N+]3[B-](F)(F)n3c([Te]c4ccccc4)ccc32)cc1` registered an absorption maximum (in C1CCOC1) of 620 nm.
`CCCCCCCCCCCCOc1ccc(C2=C3C(=O)N(CC(OCC)OCC)C(c4ccc(OCCCCCCCCCCCC)c(OCCCCCCCCCCCC)c4)=C3C(=O)N2CC(OCC)OCC)cc1OCCCCCCCCCCCC` had an absorption maximum (in ClC(Cl)Cl) of 496 nm.
Regarding `CCc1c(C)[nH]c(C2=[N+]3C(=Cc4c(C)cc(C)n4[B-]3(F)F)c3ccccc32)c1C`, the absorption maximum is reported as 615 nm (in C1CCOC1); 607 nm (in CC#N); 616 nm (in CCCCCC); 610 nm (in CO); 623 nm (in Cc1ccccc1); 616 nm (in ClCCl).
Regarding `CCN(CC)c1ccc2cc(/C=C(\C#N)c3nc4ccccc4s3)c(=O)oc2c1`, the absorption maximum (in C1COCCO1) turned out to be 498 nm; the absorption maximum (in CC#N) came to 506 nm; the absorption maximum (in CCO) is 511 nm; the absorption maximum (in CCOC(C)=O) worked out at 504 nm; the absorption maximum (in CN(C)C=O) was 528 nm; the absorption maximum (in CO) was determined as 512 nm. The absorption maximum reads like this: (in CS(C)=O) 525 nm; (in Cc1ccccc1) 501 nm; (in ClCCl) 509 nm.
Under “in Cc1ccccc1”, `N#Cc1cc(C#N)c(-c2cc(-n3c4ccccc4c4ccccc43)cc(-n3c4ccccc4c4ccccc43)c2)cc1-c1ccc(N(c2ccccc2)c2ccccc2)cc1` had an absorption maximum of 405 nm.
`CCN(CC)c1ccc2cc(-c3ccc(-c4ccc(-c5cc6ccccc6oc5=O)cc4)cc3)c(=O)oc2c1`: the absorption maximum (in ClCCl) is 409 nm.
`CCCCCCCCn1cc(-n2c(-c3cc(-c4nc5ccc(C)cc5n4-c4cn(CCCCCCCC)nn4)cc(-c4nc5ccc(C)cc5n4-c4cn(CCCCCCCC)nn4)c3)nc3ccc(C)cc32)nn1` had an absorption maximum (in ClCCl) of 309.5 nm.
As to `c1ccc2c3c(ccc2c1)-c1c2ccccc2cc2cccc-3c12`, the absorption maximum (in CCCCCCC) is on record as 449 nm.
Take `CCOC(=O)c1c2c3c(cccc3c3cc4ccccc4cc13)N(C)C2=O`: where the note is “in CC#N”, the absorption maximum stood at 398 nm.
Regarding `Cc1ccccc1[B-]1(c2ccccc2C)n2nc(C(F)(F)F)cc2-c2c3ccccc3cc[n+]21`, the absorption maximum reads like this: (in C1CCCCC1) 374 nm; (in Cc1ccccc1) 380 nm; (in ClCCl) 374 nm.
`c1ccc2c(c1)c1ccccc1c1ncncc21` gave an absorption maximum (in ClCCl) of 346 nm.
For the setting “in ClC(Cl)Cl”, `CCCCN1c2ccc(/C=C/c3cc(=O)oc4cc(C)ccc34)cc2Sc2cc(/C=C/c3cc(=O)oc4cc(C)ccc34)ccc21` returned an absorption maximum of 441 nm.
Take `CC(C)[Si](C#Cc1c2ccccc2c(C#C[Si](C(C)C)(C(C)C)C(C)C)c2nc3cc4c(cc3nc12)C1c2ccccc2C4c2ccccc21)(C(C)C)C(C)C`: the absorption maximum reads like this: (in CCCCCC) 558 nm; (in ClCCl) 562 nm.
Turning to `COc1cc2sc3nc(-c4ccccc4OC)sc3c2cc1OC`, the absorption maximum (in CS(C)=O) came to 365 nm.
Regarding `COc1cc2c(cc1-c1ccc([N+](=O)[O-])cc1)Cc1c3c(c4c(c1-2)-c1cc(OC)c(-c2ccc([N+](=O)[O-])cc2)cc1C4)C(=O)N(CCC(C)C)C3=O`, the absorption maximum (in C1CCOC1) was 409 nm.
Compound `[NH3+]c1cc([NH3+])cc(-c2nc3ccccc3s2)c1` returned an absorption maximum (in O) of 315 nm.
`c1ccc(N(c2ccccc2)c2ccc(-c3ccc4c(c3)C3(c5ccccc5Oc5ccccc53)c3cc(-c5ccc(N(c6ccccc6)c6ccccc6)cc5)ccc3-4)cc2)cc1` returned an absorption maximum (in ClCCl) of 372 nm.
In turn, `COc1ccc(N2c3ccc4ccccc4c3-c3c4ccccc4cc[n+]3[B-]2(c2ccccc2)c2ccccc2)cc1` came in with an absorption maximum (in Cc1ccccc1) of 520 nm.
As to `CCCCN1/C(=C/C=C/C2=[N+](C)c3ccccc3C2(C)C)C(C)(C)c2c1ccc1ccccc21`, the absorption maximum (in CS(C)=O) is listed as 572 nm.
For `COc1ccc(O)c(C=O)c1`, the absorption maximum reads like this: (in CO) 359 nm; (in ClC(Cl)Cl) 364 nm.
As for `CCN(C)c1ccc(C2=C3C(C)=CC(/C=C/c4ccc(OCCCN=[N+]=[N-])cc4)=[N+]3[B-](F)(F)n3c(C)cc(C)c32)cc1`, the absorption maximum (in CO) worked out at 568 nm.
`N#Cc1c[nH]c2ccccc12`: the absorption maximum is, setting by setting: (in C1COCCO1) 277.3 nm; (in CC#N) 276.25 nm.
Consider `CCC1(CC)c2cc(B(c3c(C)cc(C)cc3C)c3c(C)cc(C)cc3C)ccc2-c2ccc(N(c3ccccc3)c3ccccc3)cc21`, for which the absorption maximum (in C1CCOC1) amounted to 400 nm; the absorption maximum (in CC#N) is given as 394 nm; the absorption maximum (in CC(C)=O) is 398 nm; the absorption maximum (in CCCCCC) turned out to be 401 nm; the absorption maximum (in CN(C)C=O) came out at 396 nm; the absorption maximum (in Cc1ccccc1) is listed as 403 nm. The compound also displayed an absorption maximum (in ClC(Cl)Cl) of 402 nm.
As for `F[B-]1(F)n2c(c3cc4ccccc4cc3c2-c2ccccc2)C=C2c3cc4ccccc4cc3C(c3ccccc3)=[N+]21`, the absorption maximum by setting is: (in C1CCOC1) 761 nm; (in CN(C)C=O) 764 nm; (in ClCCl) 762 nm; (in c1ccccc1) 765 nm.
Take `CN1C(=CC2=C([O-])C(=Cc3oc4ccccc4[n+]3C)C2=C(C#N)C#N)C(C)(C)c2ccccc21`: for the setting “in ClC(Cl)Cl”, the absorption maximum was 655 nm.
Compound `COc1ccsc1-c1ccc(-c2ccc(-c3sccc3OC)s2)s1` came in with an absorption maximum (in CCCCCCCCCCCCCC) of 409 nm.
With `CC(C)(C)c1ccc(-c2nc3ccccc3nc2-c2cc(-c3nc4ccccc4nc3-c3ccc(C(C)(C)C)cc3)cc(-n3c4ccccc4c4ccccc43)c2)cc1`, the absorption maximum (in Cc1ccccc1) is listed as 344 nm.
In turn, `Cc1ccc(S(=O)(=O)Nc2c(/C=C/c3ccccc3)sc(-c3ccc(N(C)C)cc3)c2-c2ccsc2)cc1` gave an absorption maximum (in CC#N) of 465 nm.
In turn, `O=[N+]([O-])c1cc(C=C(C#Cc2ccccc2)C#Cc2ccccc2)ccc1C=C(C#Cc1ccccc1)C#Cc1ccccc1` displayed an absorption maximum (in ClC(Cl)Cl) of 413 nm.
In the case of `O=C1NC(=O)C(c2c[nH]c3ccccc23)=C1c1c[nH]c2ccccc12`, the absorption maximum by setting is: (in C1CCOC1) 450 nm; (in CC#N) 446 nm; (in CC(C)OC(C)C) 443 nm; (in CCCCOCCCC) 445 nm; (in CCO) 460 nm; (in CCOC(C)=O) 445 nm. For the same compound, the absorption maximum stood at 454 nm (in CN(C)C=O), 447 nm (in Cc1ccccc1) and 448 nm (in ClCCl).
For `Cc1ccc(-c2[nH]c(=O)n3c2-c2ccccc2C3=O)c(O)c1`, the absorption maximum by setting is: (in CC#N) 393 nm; (in CO) 397 nm; (in ClCCl) 393 nm.
`CCc1cccc(CC)c1-c1c2ccccc2c(-c2c(CC)cccc2CC)c2cc3ccccc3cc12` registered an absorption maximum (in ClCCl) of 495 nm.
As to `c1ccc(-c2ccnc(-c3ccccc3)n2)cc1`, the absorption maximum (in ClC(Cl)Cl) is given as 278 nm.
